Measured values published in patent US11584763B2, “Chromenopyridine derivatives as phosphatidylinositol phosphate kinase inhibitors” (HIBERCELL, INC., priority 2017, dated 2023).

How the values were obtained:
Format in all cases: biochemical
[1] = molecular target: T1, PIP4K 2A (Homo sapiens, UniProt P48426); experiment: ADP-glo kinase assay PIP4K 2A; set-up: 4 nM PIP4K2A (full length protein, SignalChem); purchased SignalChem; conditions: compounds listed under IC50 bin headings
T1 sequence (P48426 1-406): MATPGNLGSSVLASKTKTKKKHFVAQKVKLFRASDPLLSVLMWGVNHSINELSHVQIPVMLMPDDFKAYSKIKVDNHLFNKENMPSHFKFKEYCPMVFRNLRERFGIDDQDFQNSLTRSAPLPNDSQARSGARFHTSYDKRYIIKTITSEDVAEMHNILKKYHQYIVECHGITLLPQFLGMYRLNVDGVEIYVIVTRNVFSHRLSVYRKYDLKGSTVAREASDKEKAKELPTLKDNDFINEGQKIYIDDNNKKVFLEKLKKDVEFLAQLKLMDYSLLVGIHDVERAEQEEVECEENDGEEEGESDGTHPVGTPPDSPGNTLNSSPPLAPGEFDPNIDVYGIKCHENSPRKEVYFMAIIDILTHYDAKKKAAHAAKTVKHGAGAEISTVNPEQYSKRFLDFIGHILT
Summary of the method: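 Inhibition was calculated versus DMSO controls from ADP-Glo luminescence and fitted to IC50 over a 10-point, threefold series. Compound was first pre-incubated 15 min at room temperature with PIP4K2A (full-length; 4 nM in the enzyme/substrate mix) and PI(5)P diC8 (100 μM in that mix). The reaction then ran for 1 h after adding 60 μM ATP solution, in MOPS pH 7.2/MgCl2/Tween buffer.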

[2] = molecular target: T2, PIP4K2B (Homo sapiens, UniProt P78356); experiment: Trans-FI P kinase assay PIP4K2B (PIP4KtypeIIB inhibition assay); conditions: compounds listed under IC50 bin headings; 100 uM GTP; read-out: Trans-FI P kinase assays: PIP4K2B IC50
T2 construct: made in house; host or cells: E. coli
T2 sequence (P78356 1-416): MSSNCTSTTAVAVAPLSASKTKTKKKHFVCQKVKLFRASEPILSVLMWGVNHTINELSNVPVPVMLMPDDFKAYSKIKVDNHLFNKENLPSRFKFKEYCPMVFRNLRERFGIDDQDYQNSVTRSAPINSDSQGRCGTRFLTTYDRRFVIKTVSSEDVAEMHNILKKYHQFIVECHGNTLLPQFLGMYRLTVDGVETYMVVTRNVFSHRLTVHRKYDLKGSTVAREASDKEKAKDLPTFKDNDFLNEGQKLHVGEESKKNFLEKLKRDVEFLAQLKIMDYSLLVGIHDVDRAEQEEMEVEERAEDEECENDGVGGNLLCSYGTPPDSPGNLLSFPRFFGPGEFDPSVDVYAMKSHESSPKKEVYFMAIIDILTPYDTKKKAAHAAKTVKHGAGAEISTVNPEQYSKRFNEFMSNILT
Summary of the method: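 Transcreener FI fluorescence read-out of GDP formed by E. coli-expressed GST-PIP4K2B (5 nM) using 100 uM GTP and 80 uM PI5P with DOPE carrier lipid, pH 7.3, 2 h reaction. Compounds (up to 4.8 uM) were preincubated with enzyme 1 h at 27 C; IC50 fitted from residual activity relative to no-inhibitor control.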

[3] = molecular target: T1, PIP4K 2A; experiment: Kinase Assay PIP4K2 A (PIP4KtypeIIA inhibition assay); set-up: made in house; host or cells: E. coli; conditions: compounds listed under IC50 bin headings
Summary of the method: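 GST-tagged enzyme from E. coli at 0.5 nM final was preincubated with compound for 1 h at 27 C, then reacted with 10 uM ATP, 80 uM PI5P and DOPE carrier in 50 mM HEPES pH 7.3, 5% DMSO. After 1 h, ADP was measured by ADP-Glo luminescence against a calibration curve. IC50 was fitted from % residual activity.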

IC50 [1] [nM]	IC50 [2] [nM]	IC50 [3] [nM]	SMILES
1 to 10	10 to 100	≤ 1	CC1Oc2cc(N3CCCC3=O)ccc2-c2cnc(Nc3cncc(N4CCCC4=O)c3)cc21 (stereo not drawn) [Example 54, 1-(5-methyl-3-((5-(2-oxopyrrolidin-1-yl)pyridin-3-yl)amino)-5H-chromeno[4,3-c]pyridin-8-yl)pyrrolidin-2-one]
1 to 10	10 to 100	1 to 10	CC1Oc2cc(N3CCCC3=O)ccc2-c2cnc(Nc3cncc(Nc4ccccn4)c3)cc21 (stereo not drawn) [Example 130, 1-(5-methyl-3-((5-(pyridin-2-ylamino)pyridin-3-yl)amino)-5H-chromeno[4,3-c]pyridin-8-yl)pyrrolidin-2-one]
≤ 1	1 to 10	≤ 1	COC(=O)N1CCOc2ncc(Nc3cc4c(cn3)-c3ccc(N5CCCC5=O)cc3OC4)cc21 [Example 77, methyl 7-((8-(2-oxopyrrolidin-1-yl)-5H-chromeno[4,3-c]pyridin-3-yl)amino)-2,3-dihydro-1H-pyrido[2,3-b][1,4]oxazine-1-carboxylate]
